Reference: US5322944A, “Process for the synthesis of enantiomers of 3-aminochroman compounds” (Adir et Compagnie, priority 1991, dated 1994)

How the values were obtained:
D2 receptors = D2 receptors (Homo sapiens, UniProt P14416); test: conventional binding techniques, D2 receptors; settings: called K 0.5 for the (+) isomer, read-out: affinity expressed as K 0.5 (Ki) for the D2 receptors
From the text: (§1) If conventional binding techniques are used, the affinity of the (+) isomer of the compound of formula (II), expressed as K 0.5, is 2×10^-10for the 5HT1 A receptors and 2×10^-8 for the D2 receptors, which is equivalent to a selectivity of the order of 100.

5HT1 A receptors = target: T1, 5HT1 A receptors (Homo sapiens, UniProt P08908); test: conventional binding techniques, 5HT1 A receptors; settings: for Ki: affinity expressed as K 0.5 (Ki) for the 5HT1 A receptors, conventional binding techniques, called K 0.5 for the (+) isomer, Ki for the (-) isomer; for selectivity (5HT1 A versus D2 receptors): ratio of D2 to 5HT1 A affinity constants
T1 sequence (P08908 1-422): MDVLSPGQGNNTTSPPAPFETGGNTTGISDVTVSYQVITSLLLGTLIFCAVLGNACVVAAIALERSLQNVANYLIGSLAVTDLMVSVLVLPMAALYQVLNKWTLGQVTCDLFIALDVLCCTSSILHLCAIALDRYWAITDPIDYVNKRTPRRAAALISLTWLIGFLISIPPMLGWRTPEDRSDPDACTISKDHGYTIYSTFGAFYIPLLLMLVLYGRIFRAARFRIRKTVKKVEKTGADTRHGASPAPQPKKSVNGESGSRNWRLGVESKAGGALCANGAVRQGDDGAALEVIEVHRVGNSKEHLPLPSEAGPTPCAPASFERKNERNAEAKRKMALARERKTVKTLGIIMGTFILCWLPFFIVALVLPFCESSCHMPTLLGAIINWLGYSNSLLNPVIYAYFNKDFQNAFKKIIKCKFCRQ
From the text: as §1

Chain of D2 receptors (P14416 whole entry): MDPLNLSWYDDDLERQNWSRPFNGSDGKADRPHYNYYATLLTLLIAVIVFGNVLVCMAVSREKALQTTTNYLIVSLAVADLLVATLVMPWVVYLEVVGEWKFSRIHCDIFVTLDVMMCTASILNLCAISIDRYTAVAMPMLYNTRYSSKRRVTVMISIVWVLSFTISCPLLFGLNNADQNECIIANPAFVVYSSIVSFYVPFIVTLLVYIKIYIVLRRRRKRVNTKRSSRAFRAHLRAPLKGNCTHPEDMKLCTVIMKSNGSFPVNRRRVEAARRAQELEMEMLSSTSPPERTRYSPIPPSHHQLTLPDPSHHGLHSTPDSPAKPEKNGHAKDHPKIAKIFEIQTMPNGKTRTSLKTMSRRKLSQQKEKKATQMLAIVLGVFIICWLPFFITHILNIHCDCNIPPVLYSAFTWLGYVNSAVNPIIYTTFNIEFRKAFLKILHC

Row | SMILES | Ki (D2 receptors) | affinity for the 5HT1 A receptors relative to that of the (-) isomer (5HT1 A receptors; (+) isomer compared with (-) isomer) | specificity relative to the (-) isomer (5HT1 A receptors; (+) isomer compared with (-) isomer, 5HT1 A versus D2) | Ki (5HT1 A receptors) | selectivity (5HT1 A versus D2 receptors) (5HT1 A receptors)
1 | CCCN(CCCCN1C(=O)CC2(CCCC2)CC1=O)C1COc2cccc(OC)c2C1 (single isomer, unassigned; (+)) [(+) isomer of the compound of formula (II)] | 20 nM | about 10 times | 20 times | 0.2 nM | ~100
2 | CCCN(CCCCN1C(=O)CC2(CCCC2)CC1=O)C1COc2cccc(OC)c2C1 (single isomer, unassigned; (-)) [(-) isomer] | 10 nM | – | – | 2 nM | ~5
